Where “and” joins values, the source holds several entries; their conditions need not be identical. Equal entries are not always repeated. Where two headings read alike, the source gives them in different places.
How the values were obtained:
[1] = tested on: SARS2; type: cell-based, SARS-CoV-2; settings: for Percentage Inhibition Average 1 μM / Screening data (Relative infection to DMSO controls) Average 1 μM: SARS2, 1 μM; for Screening data (Relative infection to DMSO controls) Average 1 μM / Screening data (Relative infection to DMSO controls) Average 5 μM / Screening data (Relative infection to DMSO controls) Average 10 μM / Screening data (Relative infection to DMSO controls) Average 25 μM / Screening data (Relative infection to DMSO controls) Average 50 μM / Average (relative infection to DMSO over the 5 tested concentrations): 100=DMSO control; for Percentage Inhibition Average 5 μM / Screening data (Relative infection to DMSO controls) Average 5 μM: SARS2, 5 μM; for Percentage Inhibition Average 10 μM / Screening data (Relative infection to DMSO controls) Average 10 μM: SARS2, 10 μM; for Percentage Inhibition Average 25 μM / Screening data (Relative infection to DMSO controls) Average 25 μM: SARS2, 25 μM; for Percentage Inhibition Average 50 μM / Screening data (Relative infection to DMSO controls) Average 50 μM: SARS2, 50 μM; for Average (relative infection to DMSO over the 5 tested concentrations): SARS2, average over 1 to 50 uM; for Percentage Infection Relative to Appropriate DMSO Control with Avg Background Subtraction: Nunc Celigo plates; for Infection Data, Average, Mean: average of Exp 1-2 (SMW491, SMW492)
[2] = tested on: cells (nuclei count); settings: for Relative cell count to DMSO controls, Average 1 μM / Relative cell count to DMSO controls, Average 5 μM / Relative cell count to DMSO controls, Average 10 μM / Relative cell count to DMSO controls, Average 25 μM / Relative cell count to DMSO controls, Average 50 μM: toxicity data, 100=DMSO control; for Relative cell count to DMSO controls, Average (for correlation analysis): average value over the 5 tested concentrations (1 to 50 uM); for Toxicity Data, Average, Mean percentage relative to DMSO control: Average of Exp 1 (SMW491) and Exp 2 (SMW492)

Structure (SMILES) | Percentage Inhibition Average 1 μM [1] [%] | Screening data (Relative infection to DMSO controls) Average 1 μM [1] | Percentage Inhibition Average 5 μM [1] [%] | Screening data (Relative infection to DMSO controls) Average 5 μM [1] | Percentage Inhibition Average 10 μM [1] [%] | Screening data (Relative infection to DMSO controls) Average 10 μM [1] | Percentage Inhibition Average 25 μM [1] [%] | Screening data (Relative infection to DMSO controls) Average 25 μM [1] | Percentage Inhibition Average 50 μM [1] [%] | Screening data (Relative infection to DMSO controls) Average 50 μM [1] | Average (relative infection to DMSO over the 5 tested concentrations) [1] | Relative cell count to DMSO controls, Average 1 μM [2] | Relative cell count to DMSO controls, Average 5 μM [2] | Relative cell count to DMSO controls, Average 10 μM [2] | Relative cell count to DMSO controls, Average 25 μM [2] | Relative cell count to DMSO controls, Average 50 μM [2] | Relative cell count to DMSO controls, Average (for correlation analysis) [2] | Percentage Infection Relative to Appropriate DMSO Control with Avg Background Subtraction ([1]; Exp 1 (SMW491), 1 uM) | Percentage Infection Relative to Appropriate DMSO Control with Avg Background Subtraction ([1]; Exp 1 (SMW491), 5 uM) | Percentage Infection Relative to Appropriate DMSO Control with Avg Background Subtraction ([1]; Exp 1 (SMW491), 10 uM) | other results
CC1=C(C(=O)NCC2CCCCC2)C(c2cccs2)NC(=O)N1 (stereo not shown) [SILCS70] | 71.98 | 28.02 | 38.83 | 61.17 | 10.99 | 89.01 | −45.91 | 145.91 | −47.89 | 147.89 | 94.40 | 130.04 | 111.32 | 104.3 | 93.9 | 79.59 | 103.83 | – | – | – | –
CN(C)CCCN(Cc1cccs1)C(=O)c1cccs1 [SILCS40] | −17.72 | 117.72 | 1.14 | 98.86 | −15.37 | 115.37 | −41.44 | 141.44 | 47.95 | 52.05 | 105.09 | 86.49 | 96.33 | 92.49 | 83.93 | 117.52 | 95.35 | 161.72% and 144.95% | 118.41% and 120.39% | 125.55% and 160.68% | SARS2 antiviral activity [1]: inactive; Percentage Infection Relative to Appropriate DMSO Control with Avg Background Subtraction ([1]; Exp 1 (SMW491), 25 uM): 122.15% and 145.90%; Percentage Infection Relative to Appropriate DMSO Control with Avg Background Subtraction ([1]; Exp 1 (SMW491), 50 uM): 46.53% and 56.51%; Percentage Infection Relative to Appropriate DMSO Control with Avg Background Subtraction ([1]; Exp 2 (SMW492), 1 uM): 86.70% and 77.51%; Percentage Infection Relative to Appropriate DMSO Control with Avg Background Subtraction ([1]; Exp 2 (SMW492), 5 uM): 88.04% and 68.60%; Percentage Infection Relative to Appropriate DMSO Control with Avg Background Subtraction ([1]; Exp 2 (SMW492), 10 uM): 101.31% and 73.96%; Percentage Infection Relative to Appropriate DMSO Control with Avg Background Subtraction ([1]; Exp 2 (SMW492), 25 uM): 185.38% and 112.33%; Percentage Infection Relative to Appropriate DMSO Control with Avg Background Subtraction ([1]; Exp 2 (SMW492), 50 uM): 61.71% and 43.46%; Infection Data, Average, Mean ([1]; n 4, 1 uM): 117.72%; Infection Data, Average, Mean ([1]; n 4, 5 uM): 98.86%; Infection Data, Average, Mean ([1]; n 4, 10 uM): 115.37%; Infection Data, Average, Mean ([1]; n 4, 25 uM): 141.44%; Infection Data, Average, Mean ([1]; n 4, 50 uM): 52.05%; Toxicity Data, Average, Mean percentage relative to DMSO control ([2]; n=4, 1 uM): 86.49%; Toxicity Data, Average, Mean percentage relative to DMSO control ([2]; n=4, 5 uM): 96.33%; Toxicity Data, Average, Mean percentage relative to DMSO control ([2]; n=4, 10 uM): 92.49%; Toxicity Data, Average, Mean percentage relative to DMSO control ([2]; n=4, 25 uM): 83.93%; Toxicity Data, Average, Mean percentage relative to DMSO control ([2]; n=4, 50 uM): 117.52%
CCN(CC)CCN(Cc1ccccn1)C(=O)c1cccs1 [SILCS37] | 16.29 | 83.71 | 15.36 | 84.64 | 23.94 | 76.06 | −2.13 | 102.13 | 0.25 | 99.75 | 89.26 | 108.95 | 110.16 | 116.31 | 104.07 | 75.29 | 102.96 | 88.98% and 80.18% | 95.46% and 97.68% | 109.85% and 92.25% | Percentage Infection Relative to Appropriate DMSO Control with Avg Background Subtraction ([1]; Exp 1 (SMW491), 25 uM): 117.51% and 105.36%; Percentage Infection Relative to Appropriate DMSO Control with Avg Background Subtraction ([1]; Exp 1 (SMW491), 50 uM): 136.02% and 127.57%; Percentage Infection Relative to Appropriate DMSO Control with Avg Background Subtraction ([1]; Exp 2 (SMW492), 1 uM): 80.82% and 84.84%; Percentage Infection Relative to Appropriate DMSO Control with Avg Background Subtraction ([1]; Exp 2 (SMW492), 5 uM): 71.36% and 74.06%; Percentage Infection Relative to Appropriate DMSO Control with Avg Background Subtraction ([1]; Exp 2 (SMW492), 25 uM): 121.75% and 63.91%; Percentage Infection Relative to Appropriate DMSO Control with Avg Background Subtraction ([1]; Exp 2 (SMW492), 50 uM): 88.75% and 46.65%; Infection Data, Average, Mean ([1]; n 4, 1 uM): 83.71%; Infection Data, Average, Mean ([1]; n 4, 5 uM): 84.64%; Infection Data, Average, Mean ([1]; n 4, 10 uM): 76.06%; Infection Data, Average, Mean ([1]; n 4, 25 uM): 102.13%; Infection Data, Average, Mean ([1]; n 4, 50 uM): 99.75%; Toxicity Data, Average, Mean percentage relative to DMSO control ([2]; n=4, 1 uM): 108.95%; Toxicity Data, Average, Mean percentage relative to DMSO control ([2]; n=4, 5 uM): 110.16%; Toxicity Data, Average, Mean percentage relative to DMSO control ([2]; n=4, 10 uM): 116.31%; Toxicity Data, Average, Mean percentage relative to DMSO control ([2]; n=4, 25 uM): 104.07%; Toxicity Data, Average, Mean percentage relative to DMSO control ([2]; n=4, 50 uM): 75.29%

From patent US20240132484A1, “BROAD SPECTRUM ANTIVIRAL COMPOUNDS TARGETING THE SKI COMPLEX” (priority 2020, published 2024)
